Source: PubChem BioAssay (NCI)
“And” between values parts separate entries of the source, which are not always exact repeats. Equal values may be shown once.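 Growth conditions: 96-well plates. Treatment: test compound, 48 hours, 5 concentrations. Analysis: linear interpolation between bracketing concentrations; unreached endpoints set to highest concentration. GI50 = concentration required for 50% inhibition of growth. TGI denotes the concentration required for complete inhibition of growth.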

Key:
Assay in all cases: DTP human tumour cell line panel, 48 h
[1] = system: OVCAR-4 ovarian
[2] = system: DU-145 prostate
[3] = system: NCI/ADR-RES ovarian
[4] = system: NCI-H460 lung
[5] = system: SK-MEL-2 melanoma
[6] = system: MDA-MB-435
[7] = system: M14 melanoma
[8] = system: COLO 205 colon
[9] = system: HT29 colon
[10] = system: KM12 colon

Row | SMILES | TGI [1] | TGI [2] | TGI [3] | TGI [4] | TGI [5] | TGI [6] | TGI [7] | TGI [8] | TGI [9] | TGI [10] | GI50 [1] | GI50 [2] | GI50 [3] | GI50 [5] | GI50 [7] | GI50 [8]
1 | CC1=C2C(=O)NN=C2CCN1c1ccc(Br)cc1 | > 100 µM | > 100 µM | > 100 µM | > 100 µM | > 100 µM | > 100 µM | > 100 µM | > 100 µM | > 100 µM | > 100 µM | – | – | – | – | – | –
2 | COc1ccccc1Nc1nc(N)nc(N)c1N=O | > 100 µM | > 100 µM | > 100 µM | > 100 µM | > 100 µM | > 100 µM | > 100 µM | > 100 µM | > 100 µM | > 100 µM | – | – | – | – | – | –
3 | O=C(O)CSc1nnc(COc2ccc(Cl)cc2)n1-c1ccccc1 | > 100 µM | > 100 µM | > 100 µM | > 100 µM | > 100 µM | > 100 µM | > 100 µM | > 100 µM | > 100 µM | > 100 µM | – | – | – | – | – | –
4 | COc1cc(-c2cc(=O)c3cc4c(cc3[nH]2)OCO4)cc(OC)c1O | > 10 µM | > 10 µM | > 10 µM | > 10 µM | > 10 µM | > 10 µM | > 10 µM | > 10 µM | > 10 µM | > 10 µM | – | – | – | – | – | –
5 | CC(=O)OCC1OC(OC(C)(C)CC/C=C(\C)[C@@H]2C/C=C(\C)CC/C=C(\C)CC2)C(O)C(O)C1OC(C)=O (stereo partly specified) | > 100 µM and 32.1 µM | > 100 µM and 32.1 µM | > 100 µM and 38.7 µM | 35.3 µM and 61.8 µM | > 100 µM and 29.9 µM | > 82.5 µM and 38.8 µM | > 100 µM and 47.8 µM | 76.9 µM and 32.5 µM | > 55.5 µM and 28.1 µM | > 59.7 µM and 36.8 µM | > 58.7 µM and 16.2 µM | > 76.3 µM and 17 µM | 45.8 µM and 19.5 µM | > 64.3 µM and 16.4 µM | 60 µM and 19.7 µM | 35.7 µM and 15.8 µM
6 | COc1cccc2c(N)c3cccc(C(=O)NCCN(C)C)c3nc12 | 0.656 µM | 2.64 µM | 12.4 µM | 1.72 µM | 1.05 µM | 1.18 µM | 1.71 µM | 0.592 µM | 0.633 µM | 3.59 µM | – | – | – | – | – | –
7 | COc1ccc(-n2c(=O)c3[nH]cnc3n(-c3ccc(OC)cc3)c2=S)cc1 | > 100 µM | > 100 µM | > 100 µM | > 100 µM | > 100 µM | > 100 µM | > 100 µM | > 100 µM | > 100 µM | > 100 µM | – | – | – | – | – | –
8 | Brc1ccc(CCNCCN2CCCCC2)cc1 | 48.1 µM | > 100 µM | 59.5 µM | 27.8 µM | 34.5 µM | 18.2 µM | 29.6 µM | 25.6 µM | 15.4 µM | 30.2 µM | – | – | – | – | – | –
9 | CC(C)(N=NC(C)(C)C(=O)NCCO)C(=O)NCCO | > 100 µM | > 100 µM | > 100 µM | > 100 µM | > 100 µM | > 100 µM | > 100 µM | > 100 µM | > 100 µM | > 100 µM | – | – | – | – | – | –
10 | NC(=O)N/N=C(\Cc1nc2ccc(Cl)cc2[nH]c1=O)C(=O)Nc1ccc(Cl)cc1Cl | > 100 µM | > 100 µM | > 100 µM | > 100 µM | > 100 µM | > 100 µM | > 100 µM | > 100 µM | > 100 µM | > 100 µM | – | – | – | – | – | –
11 | Cc1nc2cccc([N+](=O)[O-])c2c(NCCCN(C)C)c1C | > 100 µM | > 100 µM | > 100 µM | > 59.6 µM | > 85.6 µM | > 100 µM | > 100 µM | 39.5 µM | 55.3 µM | > 62.4 µM | – | – | – | – | – | –
12 | CN(C)CCCOc1nc2c(c(=O)n(C)c(=O)n2C)n1C (tested in a mixture with another compound) | > 100 µM | 39.5 µM | > 100 µM | > 100 µM | > 100 µM | > 100 µM | > 100 µM | > 100 µM | > 100 µM | > 100 µM | – | – | – | – | – | –
13 | O=C(O)c1cc2c(cc1CC(Cc1ccc3c(c1)CCC3)C(=O)O)CCC2 (stereo unspecified) | > 100 µM | > 100 µM | > 100 µM | > 100 µM | > 100 µM | > 100 µM | > 100 µM | > 100 µM | > 100 µM | > 100 µM | – | – | – | – | – | –
14 | CN(CCC#N)c1ccc(/C=C2\SC(=S)NC2=O)cc1 | > 100 µM | > 100 µM | > 100 µM | > 100 µM | > 100 µM | > 100 µM | > 100 µM | > 100 µM | > 100 µM | > 100 µM | – | – | – | – | – | –
15 | OC1C2[C@@H](O)CCCN2C[C@@H](O)[C@H]1O (stereo partly specified) | > 100 µM | > 100 µM | > 100 µM | > 100 µM | > 100 µM | > 100 µM | > 100 µM | > 100 µM | > 100 µM | > 100 µM | – | – | – | – | – | –
16 | CC(CN1c2ccccc2Sc2ccccc21)N(C)C (stereo unspecified) | 32.5 µM | 34.9 µM | 30.5 µM | 36 µM | 34.7 µM | 31.2 µM | 33.9 µM | 29.2 µM | 30.8 µM | 37.6 µM | – | – | – | – | – | –
17 | CN(C)CCCOC(=O)C(c1ccccc1)C1(O)CCSCC1 (stereo unspecified) | > 100 µM | > 100 µM | > 100 µM | > 100 µM | > 100 µM | > 100 µM | > 100 µM | > 100 µM | > 100 µM | > 100 µM | – | – | – | – | – | –
